Here are results for seven molecules from patent US5593970A, “Heterocyclic anthracycline analogs” (priority 1994, dated 1997).

One series deals with Colon. In words: NCI assay, average per cancer type. The following applies: for CC50 / GI50: Homo sapiens; for CC50: 48 h, read-out: Average LOG10 LC50; for GI50: read-out: Average LOG10 GI50; for Average LOG10 LC50: Colon, 2880 min.
A further series relates to Renal. Nature of the series: NCI assay, average per cancer type. The following applies: for CC50 / GI50: Homo sapiens; for CC50: 48 h, read-out: Average LOG10 LC50; for GI50: read-out: Average LOG10 GI50; for Average LOG10 LC50: Renal, 2880 min.
The next series concerns NSC Lung. Nature of the series: NCI assay, average per cancer type. Conditions: for CC50 / GI50: Homo sapiens; for CC50: 48 h, read-out: Average LOG10 LC50; for GI50: read-out: Average LOG10 GI50; for Average LOG10 LC50: NSC Lung, 2880 min.
Another series relates to SKOV3. In words: Microculture tetrazolium assay. The format is cell-based. Conditions: Homo sapiens, SK-OV-3, SKOV3; read-out: IC50.
The subject of another series is SKVLB. In words: Microculture tetrazolium assay. The format is cell-based. The following applies: for VLB/OV3: IC50 ratio SKVLB/SKOV3; for pIC50: SKVLB.
For a further series, the system named is Melanoma. Nature of the series: NCI assay, average per cancer type. The following applies: for CC50 / GI50: Homo sapiens; for CC50: 48 h, read-out: Average LOG10 LC50; for GI50: read-out: Average LOG10 GI50; for Average LOG10 LC50: Melanoma, 2880 min.
A further series has as its system CNS. Nature of the series: NCI assay, average per cancer type. Conditions: for CC50 / GI50: Homo sapiens; for CC50: 48 h, read-out: Average LOG10 LC50; for GI50: read-out: Average LOG10 GI50.
Another series deals with tumor cell lines. Nature of the series: NCI sulforhodamine B assay, all cell lines. The following applies: Homo sapiens; for CC50 / IC100: 48 h; for CC50: read-out: Log10 LC50, Mean / MG-MID, all cell lines (converted); for IC100: read-out: Log10 TGI, Mean / MG-MID, all cell lines; for GI50: read-out: Log10 GI50, Mean / MG-MID, all cell lines (converted). (In general: In SRB staining, fixed cells bind dye roughly in proportion to their protein.)

Another series deals with SC Lung. In words: NCI assay, average per cancer type. The following applies: for CC50 / GI50: Homo sapiens; for CC50: 48 h, read-out: Average LOG10 LC50; for GI50: read-out: Average LOG10 GI50; for Average LOG10 LC50: SC Lung, 2880 min.
In the next series the test system is solid tumors. Nature of the series: NCI assay, mean potency in solid tumors. The following applies: for GI50 / CC50: Homo sapiens; for GI50: read-out: Average LOG10 GI50, Mean Potency in solid tumors; for Average LOG10 LC50, Mean Potency in solid tumors: 2880 min; for CC50: 48 h, read-out: Average LOG10 LC50, Mean Potency in solid tumors.
A further series concerns Leukemia. Nature of the series: NCI assay, average per cancer type. The following applies: for CC50: 48 h, read-out: Average LOG10 LC50; for GI50: read-out: Average LOG10 GI50; for Average LOG10 LC50: Leukemia, 2880 min.
The subject of another series is Ovarian. In words: NCI assay, average per cancer type. Conditions: for CC50 / GI50: Homo sapiens; for CC50: 48 h, read-out: Average LOG10 LC50; for GI50: read-out: Average LOG10 GI50.
The subject of a further series is LOX. Nature of the series: Microculture tetrazolium assay. Format: cell-based. The following applies: read-out: IC50.
For another series, the system named is T47D. In words: Microculture tetrazolium assay. The format is cell-based.

As usually defined, the pIC50 is −log10 of the IC50, conventionally taken in molar units.

pIC50: −log10 of the molar value. Values joined by “and” are separate entries in the source; they are usually repeats but may differ in a detail not shown here. Equal values may be shown once. Read-outs that look alike come from different tables or passages of the source. A value given as a limit tells only on which side of the number the result lay.

On to `CCOC(=O)C1CC2=C(C(=O)c3c(c(O)c4ccccc4c3OC)C2=O)C(O[C@H]2C[C@H](NC(=O)C(F)(F)F)[C@H](O)[C@H](C)O2)O1` (mixture of isomers) [BCH-689, (1'S,1R,3S) and (1'S,1S,3R) Ethyl (6-hydroxy-11-methoxy-5,12-dioxo-1-(3,-trifluoroacetamido-1-daunosaminyl)-3,4,5,12-tetrahydroanthraceno[2,3-c]pyran-3-yl)formate], for which the CC50 in the series with Colon was 38.9 µM; in the series with Renal it was 37.2 µM; in the series with NSC Lung it was 41.7 µM; in the series on Melanoma it was 41.7 µM; in the series with CNS, 40.7 µM; in the series with tumor cell lines, 45.7 µM. Moreover, the CC50 was 42.7 µM in the series on SC Lung, less than 100 µM with Leukemia and 42.7 µM in the series on Ovarian. For the same molecule, the GI50 with Colon was 11.2 µM; with Renal it was 11.2 µM; in the series on NSC Lung, 13.5 µM; in the series on Melanoma it was 12.6 µM; with CNS, 12.9 µM; in the series with tumor cell lines, 12.6 µM. The GI50 in the series on SC Lung is 11.5 µM; in the series on solid tumors, 12 µM; in the series on Leukemia it was 15.5 µM; with Ovarian, 11.5 µM. Also, the pIC50 in the series with SKOV3 is 5.42; in the series on SKVLB (read-out: IC50) it was 5.40. In the series on SKVLB, the VLB/OV3 stood at 1.06. For the same molecule, the IC100 in the series on tumor cell lines was 26.3 µM.

As to `COc1cccc2c1C(=O)c1c(O)c3c(c(O)c1C2=O)C[C@@](O)(C(=O)CO)C[C@@H]3O[C@H]1C[C@H](N)[C@H](O)[C@H](C)O1` [ADR, reference compound], the “Average LOG10 LC50” value in the series on Colon is -4.86 ± 0.27 log molar; with Renal, -4.87 ± 0.38 log molar; with NSC Lung, -5.01 ± 0.26 log molar; with Melanoma, -5.56 ± 0.29 log molar; with SC Lung it was -5.39 ± 0.18 log molar; in the series on Leukemia, -4.76 ± 0.10 log molar. The CC50 with Colon was 13.8 µM; with Renal, 13.5 µM; with NSC Lung it was 9.77 µM; in the series on Melanoma it was 2.75 µM; with Leukemia, 17.4 µM. For the same molecule, the GI50 was 0.245 µM with Colon; 0.182 µM in the series with Renal; 0.0468 µM in the series with NSC Lung; 0.12 µM with Melanoma; 0.0851 µM in the series on CNS; 0.0537 µM with SC Lung. In addition, the figures for the GI50 in the series with solid tumors, with Leukemia and in the series on Ovarian were 0.117 µM, 0.0309 µM and 0.282 µM, respectively. Further, the pIC50 in the series on LOX is 7.36; in the series on T47D (Homo sapiens), 7.12; in the series with T47D (listed as Adriamycin) it was 7.14; in the series on SKVLB, 5.33. The VLB/OV3 in the series with SKVLB (listed as Adriamycin) is 82.63 and 121.5. Also, the “Average LOG10 LC50, Mean Potency in solid tumors” value with solid tumors is -5.07 ± 0.28 log molar.

`COC(=O)[C@H]1CC2=C(C(=O)c3cc4ccccc4cc3C2=O)[C@H](O[C@H]2C[C@H](NC(=O)C(F)(F)F)[C@H](O)[C@H](C)O2)O1` [BCH-670]: the CC50 was 25.1 µM in the series with Colon; 29.5 µM in the series on Renal; 24 µM with NSC Lung; 20.4 µM in the series with Melanoma; 26.3 µM with CNS; 29.5 µM in the series with tumor cell lines. The CC50 is 38.9 µM with SC Lung, 26.9 µM in the series on solid tumors, more than 100 µM in the series with Leukemia and 39.8 µM in the series on Ovarian. The GI50 is 2.04 µM with Colon; 4.37 µM in the series with Renal; 3.09 µM in the series on NSC Lung; 1.78 µM with Melanoma; 3.63 µM in the series with CNS; 2.75 µM in the series with tumor cell lines. Moreover, the GI50 was 3.31 µM in the series with SC Lung, 3.02 µM with solid tumors, 1.66 µM with Leukemia and 3.8 µM with Ovarian. Further, the IC100 in the series with tumor cell lines is 8.32 µM.

Take `COC(=O)[C@@H]1CC2=C(C(=O)c3cc4ccccc4cc3C2=O)[C@H](O[C@H]2C[C@H](NC(=O)C(F)(F)F)[C@H](O)[C@H](C)O2)O1` [BCH-672]: the CC50 in the series on Colon is 28.2 µM; in the series on Renal, 24 µM; in the series on NSC Lung, 27.5 µM; with Melanoma, 21.4 µM; in the series with CNS, 31.6 µM; with tumor cell lines, 26.9 µM. Further, the CC50 was 39.8 µM in the series with SC Lung, 27.5 µM in the series with solid tumors, 42.7 µM with Leukemia and 25.7 µM with Ovarian. Also, the GI50 is 1.66 µM in the series on Colon; 4.17 µM in the series with Renal; 3.55 µM in the series on NSC Lung; 1.55 µM in the series with Melanoma; 4.68 µM with CNS; 2.63 µM in the series on tumor cell lines. Also, the GI50 was 2.04 µM with SC Lung, 2.75 µM in the series on solid tumors, 1.29 µM with Leukemia and 3.16 µM with Ovarian. In addition, the IC100 with tumor cell lines is 7.94 µM.

As for `CCOC(=O)[C@@H]1CC2=C(C(=O)c3c(cc4ccccc4c3O)C2=O)[C@@H](O[C@H]2C[C@H](NC(=O)C(F)(F)F)[C@H](O)[C@H](C)O2)O1` [BCH-673], the CC50 in the series with Colon was 34.7 µM; in the series on Renal, 11 µM; with NSC Lung it was 21.9 µM; in the series on Melanoma it was 13.5 µM; in the series on CNS it was 26.9 µM; in the series on tumor cell lines, 20.9 µM. In addition, the CC50 in the series on SC Lung is 36.3 µM; in the series with solid tumors, 21.9 µM; with Leukemia, more than 100 µM; in the series with Ovarian, 21.9 µM. Moreover, the GI50 in the series with Colon is 0.794 µM; with Renal, 1.58 µM; with NSC Lung it was 1.74 µM; with Melanoma, 1.48 µM; in the series with CNS, 2.24 µM; in the series on tumor cell lines, 1.48 µM. The GI50 with SC Lung was 1.82 µM; in the series with solid tumors, 1.55 µM; in the series on Leukemia, 1.07 µM; in the series with Ovarian, 1.55 µM. The IC100 with tumor cell lines is 4.47 µM.

For `COC(=O)[C@@H]1CC2=C(C(=O)c3cc4ccccc4c(O)c3C2=O)[C@@H](O[C@H]2C[C@H](NC(=O)C(F)(F)F)[C@H](O)[C@H](C)O2)O1` [BCH-683], the CC50 with Colon is 10.5 µM; with Renal, 26.3 µM; in the series on NSC Lung it was 28.2 µM; in the series on Melanoma, 7.08 µM; in the series on CNS, 31.6 µM; in the series on tumor cell lines, 21.9 µM. The CC50 in the series with SC Lung is 8.32 µM; in the series with solid tumors it was 15.5 µM; in the series on Leukemia, less than 100 µM; in the series with Ovarian it was 15.8 µM. In addition, the GI50 in the series with Colon was 1.29 µM; with Renal, 3.16 µM; in the series with NSC Lung it was 3.02 µM; with Melanoma, 1.12 µM; in the series with CNS, 3.39 µM; in the series with tumor cell lines, 2.14 µM. The GI50 in the series on SC Lung is 1.86 µM; in the series on solid tumors, 2.09 µM; in the series on Leukemia, 1.82 µM; in the series with Ovarian it was 2.09 µM. Moreover, in the series on tumor cell lines, the IC100 is 5.75 µM.

Consider `COc1cccc2c1C(=O)c1c(O)c3c(c(O)c1C2=O)C[C@@](O)(C(C)=O)C[C@@H]3O[C@H]1C[C@H](N)[C@H](O)[C@H](C)O1` [DNM, reference compound], for which the “Average LOG10 LC50” value with Colon is given as -4.83 ± 0.37 log molar; with Renal it was -4.78 ± 0.46 log molar; in the series on NSC Lung it was -5.07 ± 0.37 log molar; in the series on Melanoma, -5.64 ± 0.17 log molar; in the series with CNS (CNS, 2880 min), -5.08 ± 0.42 log molar; with SC Lung it was -5.58 ± 0.09 log molar. Also, the “Average LOG10 LC50” value with Leukemia was -4.30 ± 0.36 log molar; with Ovarian (Ovarian, 2880 min) it was -4.78 ± 0.20 log molar. In addition, the CC50 was 14.8 µM with Colon; 16.6 µM in the series on Renal; 8.51 µM with NSC Lung; 2.29 µM in the series on Melanoma; 50.1 µM in the series on Leukemia. The GI50 in the series with Colon was 0.151 µM; with Renal, 0.162 µM; in the series with NSC Lung, 0.0912 µM; with Melanoma, 0.112 µM; with CNS it was 0.0912 µM; in the series with SC Lung it was 0.0724 µM. Further, the GI50 in the series on solid tumors was 0.112 µM; in the series on Leukemia, 0.0562 µM; in the series with Ovarian it was 0.138 µM. The “Average LOG10 LC50, Mean Potency in solid tumors” value with solid tumors is -5.11 ± 0.34 log molar.
